Data taken from patent publication US9926306B2, “Inhibition of MCL-1 and/or BFL-1/A1” (Dana-Farber Cancer Institute, Inc., priority 2012, dated 2018).
“Also recorded” adds a separate entry of the source.

Tests used:
[1] = system: BCL-XL-rescued p185+Arf−/−Mcl-1−/− CML cells; test: Caspase 3/7 activation (Caspase-Glo), BCL-XL-dependent leukemia cells; assay type: cell-based, murine; details: 8 h
Procedure: p185^+Arf^−/− and MCL-1 or BCL-XL-rescued p185^+Arf^−/−Mcl^−/− cells were maintained in RPMI 1640 (ATCC) supplemented with 10% (v/v) FBS, 100 U/mL penicillin, 100 μg/mL streptomycin, 0.1 mM MEM non-essential amino acids and 50 μM β-mercaptoethanol. […] Caspase 3/7 activation was assayed at 8 h by addition of Caspase-Glo 3/7 reagent according to manufacturer's protocol (Promega), and luminescence measured using a SpectraMax M5 microplate reader. Viability and caspase assays were performed in duplicate, repeated at least twice with independent cell cultures, and the data normalized to vehicle-treated control wells.

[2] = system: BCL-XL-rescued p185+Arf−/−Mcl-1−/− CML cells; test: Cell viability (CellTiter-Glo), BCL-XL-dependent leukemia cells; assay type: cell-based, murine; details: Mus musculus, 24 h
Procedure: Cell viability was assayed at 24 h by addition of CellTiter-Glo reagent according to the manufacturer's protocol (Promega), and luminescence was measured using a SpectraMax M5 microplate reader (Molecular Devices). […] Viability and caspase assays were performed in duplicate, repeated at least twice with independent cell cultures, and the data normalized to vehicle-treated control wells.

[3] = system: parental p185+Arf−/− CML cells; test: Cell viability and CalcuSyn synergy, parental leukemia cells; assay type: cell-based, murine; details: Mus musculus; parental cells expressing both MCL-1 and BCL-XL; read-out: IC50, cytotoxicity
Procedure: (§1) p185^+Arf^−/− and MCL-1 or BCL-XL-rescued p185^+Arf^−/−Mcl^−/− cells were maintained in RPMI 1640 (ATCC) supplemented with 10% (v/v) FBS, 100 U/mL penicillin, 100 μg/mL streptomycin, 0.1 mM MEM non-essential amino acids and 50 μM β-mercaptoethanol. Mouse embryonic fibroblasts (MEFs) cells were maintained in DMEM high glucose (Invitrogen) supplemented with 10% (v/v) FBS, 100 U/mL penicillin, 100 μg/mL streptomycin, 2 mM L-glutamine, 50 mM HEPES, 0.1 mM MEM non-essential amino acids and 50 μM β-mercaptoethanol. […] Cell viability was assayed at 24 h by addition of CellTiter-Glo reagent according to the manufacturer's protocol (Promega), and luminescence was measured using a SpectraMax M5 microplate reader (Molecular Devices). Caspase 3/7 activation was assayed at 8 h by addition of Caspase-Glo 3/7 reagent according to manufacturer's protocol (Promega), and luminescence measured using a SpectraMax M5 microplate reader. Viability and caspase assays were performed in duplicate, repeated at least twice with independent cell cultures, and the data normalized to vehicle-treated control wells.

BCL-XLΔC [4] = target: T1, BCL-XLΔC (Homo sapiens (Human), UniProt Q07817); test: BAX-mediated liposomal release assay, suppression by BCL-XL; assay type: biochemical
T1 sequence (Q07817 1-212): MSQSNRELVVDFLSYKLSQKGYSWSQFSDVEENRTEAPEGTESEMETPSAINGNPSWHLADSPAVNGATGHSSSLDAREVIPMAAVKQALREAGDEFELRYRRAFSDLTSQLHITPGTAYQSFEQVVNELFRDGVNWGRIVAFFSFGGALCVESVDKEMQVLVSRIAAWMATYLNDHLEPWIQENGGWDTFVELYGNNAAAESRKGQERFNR
Procedure: (§2) Liposomes were prepared and release assays performed as previously described^46,47. Liposomal composition reflects a mixture of the following molar percentages of lipids (Avanti Polar Lipids): phosphatidylcholine, 48%; phosphatidylethanolamine, 28%; phosphatidylinositol, 10%; dioleoyl phosphatidylserine, 10%; and tetraoleoyl cardiolipin, 4%. Aliquots of mixed lipids (1 mg total) are stored in glass at −20° C. under nitrogen, and before use, resuspended in liposome assay buffer (10 mM HEPES, 200 mM KCl, 1 mM MgCl2, pH 7) containing 12.5 mM of the fluorescent dye ANTS (8-aminonaphthalene-1,3,6-trisulfonic acid, disodium salt) and 45 mM of the quencher DPX (p-xylene-bis-pyridinium bromide. The resulting slurry is vortexed for 10 min and freeze-thawed five times in liquid nitrogen and a 40° C. water bath, respectively. The solution is then passed through an Avanti Mini-Extruder Set (#610000) equipped with a 100 nm filter, followed by passage through a Sepharose column (GE Healthcare) to remove residual ANTS/DPX.

[5] = system: MCL-1-rescued p185+Arf−/−Mcl-1−/− CML cells; test: Cell viability (CellTiter-Glo), MCL-1-dependent leukemia cells; assay type: cell-based, murine; details: MCL-1-dependent cells
Excerpt: A challenges in developing and applying molecular antagonists for BCL-2 family anti-apoptotic proteins is the variable expression of multiple homologues. That is, a cancer cell will only be susceptible to a selective anti-apoptotic inhibitor if the cell is especially dependent on that particular survival protein. […] To test MIM1's activity and specificity in cancer cells, we employed murine p185^+Arf^−/−Mcl-1^−/− chronic myelogenous leukemia (CML) cells that are unable to survive unless reconstituted with MCL-1, reflecting a stringent system for assessing MCL-1 dependence.
p185^+Arf^−/− and MCL-1 or BCL-XL-rescued p185^+Arf^−/−Mcl^−/− cells were maintained in RPMI 1640 (ATCC) supplemented with 10% (v/v) FBS, 100 U/mL penicillin, 100 μg/mL streptomycin, 0.1 mM MEM non-essential amino acids and 50 μM β-mercaptoethanol. […] Cell viability was assayed at 24 h by addition of CellTiter-Glo reagent according to the manufacturer's protocol (Promega), and luminescence was measured using a SpectraMax M5 microplate reader (Molecular Devices). Caspase 3/7 activation was assayed at 8 h by addition of Caspase-Glo 3/7 reagent according to manufacturer's protocol (Promega), and luminescence measured using a SpectraMax M5 microplate reader. […]

MCL-1ΔNΔC [6] = target: T2, MCL-1ΔNΔC (Homo sapiens (Human), UniProt Q07820); test: BAX-mediated liposomal release assay, suppression by MCL-1; assay type: biochemical
T2 sequence (Q07820 172-327, stated change not applied): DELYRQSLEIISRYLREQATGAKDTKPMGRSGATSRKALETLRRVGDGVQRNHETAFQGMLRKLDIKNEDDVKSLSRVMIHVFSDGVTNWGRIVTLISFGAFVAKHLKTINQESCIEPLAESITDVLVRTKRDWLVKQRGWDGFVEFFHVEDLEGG
Procedure: as §2

[7] = system: wild-type or Bax−/−Bak−/− MEFs; test: Cell viability (CellTiter-Glo), MEFs; assay type: cell-based, mouse; details: non-malignant fibroblasts, 24 h
Procedure: as §1

MCL-1ΔNΔC [8] = target: T2, MCL-1ΔNΔC; test: Competitive fluorescence polarization binding assay, MCL-1; details: competitive FP
Procedure: Here, we deployed MCL-1 SAHBA as a high fidelity screening tool to determine if its potency and specificity-of-action could be harnessed for small molecule discovery. […] A compilation of 71,296 small molecules was screened for the capacity to displace FITC-MCL-1 SAHBA from recombinant MCL-1ΔNΔC (aa 172-327) (FIG. 4).
Fluorescence polarization assays (FPA) were performed as previously described^38,39. […] Fluorescence polarization was measured at equilibrium and IC50 values calculated by nonlinear regression analysis of competitive binding curves using Prism software (Graphpad).

[9] = system: wild-type or Bax−/−Bak−/− MEFs; test: Caspase 3/7 activation (Caspase-Glo), MEFs; assay type: cell-based, mouse; details: 8 h
Procedure: as §1

BCL-XLΔC [10] = target: T1, BCL-XLΔC; test: Competitive fluorescence polarization binding assay, BCL-XL; details: tracer FITC-BID BH3; read-out: IC50, displacement of FITC-BID BH3 from BCL-XLΔC

| SMILES | caspase 3/7 activation [1] | IC50 [2] | IC50 [3] | blockade of BCL-XLΔC suppression of tBID-induced BAX activation (BCL-XLΔC [4]) | effect on viability / cytotoxicity [5] | blockade of MCL-1ΔNΔC suppression of tBID-induced BAX activation (MCL-1ΔNΔC [6]) | effect on viability / toxicity [7] | MCL-1ΔNΔC binding activity (MCL-1ΔNΔC [8]) | caspase 3/7 activation [9] | IC50 (BCL-XLΔC [10]) | IC50 ([5]; Mus musculus, 24 h) |
| --- | --- | --- | --- | --- | --- | --- | --- | --- | --- | --- | --- |
| CN(C)CC[C@H](CSc1ccccc1)Nc1ccc(S(=O)(=O)NC(=O)c2ccc(N3CCN(Cc4ccccc4-c4ccc(Cl)cc4)CC3)cc2)cc1[N+](=O)[O-] [ABT-737, N-(4-(4-((4′-chloro(1,1′-biphenyl)-2-yl)methyl)piperazin-1-yl)benzoyl)-4-(((1R)-3-(dimethylamino)-1-((phenylsulfanyl)methyl)propyl)amino)-3-nitrobenzenesulfonamide, reference compound] | dose-responsive caspase 3/7 activation | 1.6 µM | 5.1 µM | negates | no effect | no effect | no significant effect | no activity | no observed caspase 3/7 activation | – | – |
| Cc1cs/c(=N\C2CCCCC2)n1/N=C/c1ccc(O)c(O)c1O [MIM1, 4-((E)-(((Z)-2-(cyclohexylimino)-4-methylthiazol-3(2H)-yl)imino)methyl)benzene-1,2,3-triol] | – | – | 10.6 µM | – | – | – | little to no toxicity; also recorded: no significant effect | – | no observed caspase 3/7 activation | > 50 µM | 4.2 µM |
